Tests used:
[1] = biological target: Vp HqsK (VP1876 HK; H-NOX-associated quorum sensing kinase) (Vibrio parahaemolyticus, UniProt Q87NJ2); details: 250 μM OMFP, pH 8.0, room temperature
[2] = biological target: Vibrio parahaemolyticus HqsK (VP1876) D499A (Vibrio parahaemolyticus) (UniProt Q87NJ2)

Molecule	phosphatase assay, O-methylfluorescein release at 450 nm [1]	inhibition of HqsK autophosphorylation ([gamma-32P]-ATP, SDS-PAGE, autoradiography) by Fe(II)-NO H-NOX; 69.4 uM H-NOX, 5.3 uM HqsK D499A, purified proteins, room temperature, anaerobic [2] [%]
COc1ccc2c(c1)Oc1cc(OP(=O)(O)O)ccc1C21OC(=O)c2ccccc21 (centres unmarked) [3-O-methyl fluorescein phosphate]	Wild-type HqsK displays increasing OMF fluorescence over time, indicating Vp HqsK has phosphatase activity	–
Vibrio parahaemolyticus H-NOX (VP1877) (from UniProt Q87NJ1 1-179) (natural protein)	–	75

Reference: article PMC6759604 (Frontiers in Microbiology, 2019)
